Our source for the IC50, Kb and Selectivity values is ChEMBL document CHEMBL1129792, “Synthesis and structure-activity relationships of 1,2,3,4-tetrahydroquinoline-2,3,4-trione 3-oximes: novel and highly potent antagonists for NMDA receptor glycine site” (J Med Chem, 1996).

Test [1] has as its target Glutamate receptor ionotropic, NMDA 1 (Rattus norvegicus, UniProt P35439). Briefly: Inhibition of [3H]- DCKA binding to NMDA receptor of rat brain membranes. In kind it is cell membranes, Membrane.
Test [2] can be described thus: Functional antagonism of NR1a/2C N-methyl-D-aspartate glutamate receptor of rat membrane expressed in Xenopus oocytes. Particulars: Oocyte.
The target of test [3] is Glutamate receptor ionotropic, AMPA (Rattus norvegicus) (UniProt P19491+P19492+P19493+P19490). Briefly: Inhibition of Ionotropic glutamate receptor AMPA in xenopus oocytes expressing the rat cerebral cortex poly(A+) RNA. The format is cell-based. Particulars: Oocyte.
Test [4] is described as follows: Steady state Selectivity index for inhibition at NMDA receptor glycine site was estimated by dividing Kb (AMPA) by Kb (NMDA).

The IC50 is the midpoint of a concentration-inhibition curve. Higher therefore signals weaker potency. `Oc1nc2cc(Cl)cc(Cl)c2nc1O` gave an IC50 in test [1] of 280 nM. The same molecule showed a Kb in test [2] of 730 nM.

Take `Cc1cc(C)c2c(O)c(N=O)c(=O)[nH]c2c1`: the IC50 in test [1] is 37 nM.

Consider `O=Nc1c(O)nc2c(Cl)cccc2c1O`, for which the IC50 in test [1] was over 100000 nM.

For `O=Nc1c(O)c2cc(F)c(Cl)c(F)c2[nH]c1=O`, the IC50 in test [1] worked out at 910 nM.

For the molecule `O=Nc1c(O)nc2cc(Cl)c(Cl)c(Cl)c2c1O`, the results for the Kb in test [3] and in test [2] were 180 nM and 22 nM, respectively. Besides, the half-inhibitory concentration (IC50) in test [1] worked out at 7 nM.

With `Oc1nc2cc(F)c(Cl)c(F)c2nc1O`, in test [1], the IC50 amounted to 630 nM. This counts as sub-micromolar.

In turn, `O=c1[nH]c2c(F)c(F)c(F)c(F)c2[nH]c1=O` came in with an IC50 in test [1] of 730 nM.

As for `O=Nc1c(O)nc2ccc(Cl)c(Cl)c2c1O`, in test [1], the IC50 stood at 170 nM.

In test [1], `Oc1nc2cc(Cl)c(Cl)c(Cl)c2nc1O` displayed an IC50 of 30 nM. The same molecule returned a Kb in test [2] of 82 nM.

In test [1], `O=Nc1c(O)c2cc(Cl)ccc2[nH]c1=O` displayed an IC50 of 3400 nM.

In the case of `Oc1nc2ccccc2nc1O`, the IC50 in test [1] worked out at 9800 nM.

On to `O=Nc1c(O)nc2cccc(Cl)c2c1O`, for which the IC50 in test [1] amounted to 4400 nM.

Take `O=Nc1c(O)nc2ccccc2c1O`: in test [1], the concentration for half-maximal inhibition (IC50) was found to be 1400 nM.

As to `Cc1cc(C)c2c(O)c(N=O)c(O)nc2c1`, the Kb in test [3] is 2600 nM; in test [2], 170 nM. For the same molecule, in test [4], the Selectivity is 15.

In test [1], `O=Nc1c(O)c2c(F)c(F)c(F)c(F)c2[nH]c1=O` came in with an IC50 of 3300 nM.

In the case of `O=Nc1c(O)nc2cc(Cl)c(Cl)cc2c1O`, the Kb in test [3] turned out to be 410 nM; in test [2] it was 24 nM. This molecule also showed an IC50 in test [1] of 12 nM. For the same molecule, the Selectivity in test [4] is 17.

For the molecule `O=Nc1c(O)c2c(Cl)cc(Cl)cc2[nH]c1=O`, in test [1], the IC50 turned out to be 33 nM.

For the molecule `O=Nc1c(O)nc2cc(Cl)ccc2c1O`, the Kb is 740 nM in test [3] and 86 nM in test [2]. The molecule also yielded an IC50 in test [1] of 53 nM. The Selectivity in test [4] was 8.6.

`Oc1nc2ccc(Cl)cc2nc1O` displayed an IC50 in test [1] of 1800 nM. The Kb in test [2] stood at 2600 nM.

Turning to `O=Nc1c(O)nc2cc(Cl)cc(Cl)c2c1O`, the results for the Kb in test [3] and in test [2] were 600 nM and 47 nM, respectively. Further, in test [4], the Selectivity is 13.

As to `Cc1cc(C)c2nc(O)c(O)nc2c1`, in test [1], the IC50 worked out at 2100 nM.

`Oc1nc2cc(Cl)c(Cl)cc2nc1O` [2,3-DIHYDROXY-6,7-DICHLOROQUINOXALINE] returned an IC50 in test [1] of 130 nM. This molecule also had a Kb in test [2] of 380 nM.
